# Laboratory results taken from patent US6949255B2, “Inhibitory chemical formulation with preservative system” (priority 2000, dated 2005).
# What was measured:
# VSV = assay type: cell-based, vesicular stomatitis virus
# [1] = tested on: vesicular stomatitis virus (VSV); assay type: cell-based
# HIV = settings: among prostitutes; Kreiss et al., JAMA 1992; cited from earlier work
Compound,concentrations at which inhibitory activity was absent (VSV),inhibition of VSV (VSV),concentrations at which toxicity activity was absent (L-929 cells; mouse),killing of L-929 cells (L-929 cells),inhibition of multiplication of VSV [1],risk of HIV infection with use (HIV),killing of L-929 cells (toxicity titer) (L-929 cells; mouse),L-929 toxicity titer (L-929 cells; mouse)
OCC(O)CO [glycerol],below 8%,greater than 10 fold,below 8%,,,,,
"CC(O)CO (centres unmarked) [Propylene G, propylene glycol]",,almost no inhibition,,almost no inhibition or killing at all,,,,
Nonoxynol-9 [Nonoxynol-9®],,,,,almost identical degree of inhibition,increased risk of HIV infection,,
COC(=O)c1ccc(O)cc1 [Methylparaben],,approximately 30 fold,< 0.2%,,,,greater than 300 fold,
"CCCOC(=O)c1ccc(O)cc1 [Proplyparaben, propylparaben]",< 0.004%,approximately 55 fold,< 0.004%,,,,,approximately 15 fold
